Test results published in publication PMC11272821, “Mechanistic safety assessment via multi-omic characterisation of systemic pathway perturbations following in vivo MAT2A inhibition” (Archives of Toxicology, 2024).

Test system: rat liver proteome
Assay: Liver label-free quantitative proteomics
Type: in vivo
Description: Liver tissue were homogenized in PreOmics iST buffer (PreOmics) using a bead ruptor. […] Peptides were purified using PreOmics iST cartridges and vacuum-centrifuged to dryness. Peptides were subsequently reconstituted in 2 vol% ACN and 0.1 vol% formic acid for single-run LC–MS analysis. Peptides were analyzed using a Thermo EASY-nLC1200 coupled online to an Exploris 480 Mass Spectrometer equipped with a Nanospray Flex Ion Source integrated with a column oven (PRSO-V1, Sonation) and a FAIMS unit. Peptides were separated using a nonlinear gradient and analyzed by acquiring spectra through Data Independent Acquisition (DIA). Data was analyzed using Spectronaut V15.7.2 (Biognosys AG) direct DIA analysis using an isoform Rat database (UniProt downloaded 22.02.2021) consisting of 9,746 protein entries utilizing the Pulsar search engine. Analysis settings were maintained to factory settings and identification was set to 1% false discovery rate (FDR) for precursor and protein level. Additional information is provided in Supplementary M&M.
Data analysis was performed using R Statistical Software (version 4.3.0). Proteomics, transcriptomics and metabolomics expression changes were visualised using heatmaps showing log2 fold change relative to control. In the heatmaps missing values were highlighted in grey.
Proteomics Analysis. Liver tissue was placed in vials containing 1.4 mm zirconia beads and taken up in 500 µL of PreOmics iST buffer (PreOmics). In a cold room set to 4 °C, tissues were homogenized utilizing a bead Ruptor 12 by shaking for 30 seconds for a total of 5 times using ‘high’ setting. Lysate was normalized using BCA assay (Thermo Fisher Scientific), and subsequently incubated at 95 °C for 10 min for reduction, and alkylation of proteins. A total of 50 μg from each sample was subjected to enzymatic cleavage for 3 h by adding equal amounts of endoproteinase Lys-C and trypsin (ThermoFisher Scientific, # A40009) in a 1:50 (wt/wt) enzyme:protein ratio. De-salting and purification were performed according to the PreOmics iST protocol on a styrene divinylbenzene reversed-phase sulfonate sorbent. Purified peptides were vacuum-centrifuged to dryness and reconstituted in double-distilled water with 2 vol% ACN and 0.1 vol% formic acid (FA) for single-run LC-MS analysis.
Peptides were loaded onto a ReproSil-Pur 120 C18AQ 1.9 µm in-house packed to a 5 µm tip 75u ID × 360u × 50 cm column using Thermo EASY-nLC 1200 coupled online to an Exploris 480 Mass Spectrometer equipped with a Nanospray Flex Ion Source integrated with a column oven (PRSO-V1, Sonation) maintained at 50 °C. Peptides were separated using a nonlinear gradient: Mobile phase A was 0.1 vol% FA and 3 vol% acetonitrile (ACN) in water, Mobile phase B was 90 vol% ACN and 0.1 vol % FA. The gradient was operated at 250 nL/min flowing 3 vol% B for 3 min, 3 to 5 vol% B over 3 min, 5 to 17 vol % B over 120 min, 17 to 24 vol % B over 26 min, 24 to 30 vol% B over 14 min, 30 to 85 vol% B over 3 min.

Cn1cc2cc(-c3cc4[nH]nc(C5CC5)c4n(-c4ccc(OC(F)F)cc4)c3=O)ccc2n1 [AZ’9567] was tested, and the “Cfdp1 Log2FC” value (liver protein, 30mg/kg) was 0.5, the “Chid1 Log2FC” value (liver protein, 30mg/kg) was 1.0 and the “Comt Log2FC” value (liver protein, 30mg/kg) was -0.6. For the same compound, the “Coq4 Log2FC” value (liver protein, 30mg/kg) was 0.7, the “Csad Log2FC” value (liver protein, 30mg/kg) was -1.1 and the “Ctbs Log2FC” value (liver protein, 30mg/kg) was -0.7. The “Cyp2c23 Log2FC” value (liver protein, 30mg/kg) was -0.9, the “Cyp4a2 Log2FC” value (liver protein, 30mg/kg) was 1.3 and the “Cyp4a10 Log2FC” value (liver protein, 30mg/kg) was 1.1. For the same compound, the “Dbnl Log2FC” value (liver protein, 30mg/kg) was 0.7, the “Dcakd Log2FC” value (liver protein, 30mg/kg) was 1.3 and the “Dkc1 Log2FC” value (liver protein, 30mg/kg) was 0.6. The “Dmgdh Log2FC” value (liver protein, 30mg/kg) was 0.7, the “Dohh Log2FC” value (liver protein, 30mg/kg) was 0.7 and the “Eif4ebp1 Log2FC” value (liver protein, 30mg/kg) was 1.0. For the same compound, the “Enpep Log2FC” value (liver protein, 30mg/kg) was -1.2, the “Fabp4 Log2FC” value (liver protein, 30mg/kg) was 1.1 and the “Fabp5 Log2FC” value (liver protein, 30mg/kg) was -1.0. The “Fads1 Log2FC” value (liver protein, 30mg/kg) was -1.6, the “Fasn Log2FC” value (liver protein, 30mg/kg) was -0.7 and the “Fdft1 Log2FC” value (liver protein, 30mg/kg) was 1.1. The “Fdps Log2FC” value (liver protein, 30mg/kg) was 0.5, the “Fgr Log2FC” value (liver protein, 30mg/kg) was 1.8 and the “Gimd1 Log2FC” value (liver protein, 30mg/kg) was -0.7. For the same compound, the “Gmpr Log2FC” value (liver protein, 30mg/kg) was 0.8, the “Gnl3 Log2FC” value (liver protein, 30mg/kg) was 0.8 and the “Gnmt Log2FC” value (liver protein, 30mg/kg) was 1.7. The “Gpcpd1 Log2FC” value (liver protein, 30mg/kg) was 1.8, the “Gstm1 Log2FC” value (liver protein, 30mg/kg) was -0.8 and the “Gstm2 Log2FC” value (liver protein, 30mg/kg) was -0.9. For the same compound, the “Gtpbp4 Log2FC” value (liver protein, 30mg/kg) was 0.8, the “Hexa Log2FC” value (liver protein, 30mg/kg) was -0.6 and the “Hfe Log2FC” value (liver protein, 30mg/kg) was 1.0. For the same compound, the “Hmgcs1 Log2FC” value (liver protein, 30mg/kg) was 1.6, the “Hmgn2 Log2FC” value (liver protein, 30mg/kg) was 1.2 and the “Hnrnpa1 Log2FC” value (liver protein, 30mg/kg) was 1.5. The “Hsd17b7 Log2FC” value (liver protein, 30mg/kg) was 0.6, the “Idi1 Log2FC” value (liver protein, 30mg/kg) was 1.3 and the “Igf1 Log2FC” value (liver protein, 30mg/kg) was -1.6. For the same compound, the “Kalrn Log2FC” value (liver protein, 30mg/kg) was 0.6, the “Lipa Log2FC” value (liver protein, 30mg/kg) was -0.5 and the “Lrrc8d Log2FC” value (liver protein, 30mg/kg) was 0.8. The “Lyrm2 Log2FC” value (liver protein, 30mg/kg) was 0.7, the “Mat1a Log2FC” value (liver protein, 30mg/kg) was 0.6 and the “Mat2a Log2FC” value (liver protein, 30mg/kg) was 0.8. For the same compound, the “Mat2b Log2FC” value (liver protein, 30mg/kg) was -2.7, the “Me1 Log2FC” value (liver protein, 30mg/kg) was -1.0 and the “Mettl7b Log2FC” value (liver protein, 30mg/kg) was -1.0. The “Mettl26 Log2FC” value (liver protein, 30mg/kg) was -1.8, the “Minpp1 Log2FC” value (liver protein, 30mg/kg) was 1.5 and the “Mospd1 Log2FC” value (liver protein, 30mg/kg) was -0.7. The “Mt1 Log2FC” value (liver protein, 30mg/kg) was 6.5, the “Mtr Log2FC” value (liver protein, 30mg/kg) was 1.1 and the “Mybbp1a Log2FC” value (liver protein, 30mg/kg) was 1.0. For the same compound, the “Ncl Log2FC” value (liver protein, 30mg/kg) was 0.8, the “Nob1 Log2FC” value (liver protein, 30mg/kg) was 0.9 and the “Orm1 Log2FC” value (liver protein, 30mg/kg) was 1.5. For the same compound, the “Paics Log2FC” value (liver protein, 30mg/kg) was 0.7, the “Pcyt1a Log2FC” value (liver protein, 30mg/kg) was 0.8 and the “Pklr.1 Log2FC” value (liver protein, 30mg/kg) was -1.1. The “Prmt1 Log2FC” value (liver protein, 30mg/kg) was 0.7, the “Pspc1 Log2FC” value (liver protein, 30mg/kg) was 0.7 and the “Ptprs Log2FC” value (liver protein, 30mg/kg) was -1.0. The “Pum3 Log2FC” value (liver protein, 30mg/kg) was 1.0, the “Rbm3 Log2FC” value (liver protein, 30mg/kg) was 1.0 and the “Rgn Log2FC” value (liver protein, 30mg/kg) was -0.7. The “Rmdn1 Log2FC” value (liver protein, 30mg/kg) was 0.8, the “S1pr1 Log2FC” value (liver protein, 30mg/kg) was -0.8 and the “Scd1 Log2FC” value (liver protein, 30mg/kg) was -3.2. The “Sh3glb1 Log2FC” value (liver protein, 30mg/kg) was 0.8, the “Sirt2 Log2FC” value (liver protein, 30mg/kg) was 0.5 and the “Slc6a13 Log2FC” value (liver protein, 30mg/kg) was -1.0. For the same compound, the “Slc22a8 Log2FC” value (liver protein, 30mg/kg) was -1.4, the “Slc39a4 Log2FC” value (liver protein, 30mg/kg) was -2.8 and the “Sqle Log2FC” value (liver protein, 30mg/kg) was 0.8. For the same compound, the “Srebf1 Log2FC” value (liver protein, 30mg/kg) was 1.3, the “Sts Log2FC” value (liver protein, 30mg/kg) was -0.6 and the “Tat Log2FC” value (liver protein, 30mg/kg) was -1.6. The “Tceanc2 Log2FC” value (liver protein, 30mg/kg) was 1.3, the “Thg1l Log2FC” value (liver protein, 30mg/kg) was 0.6 and the “Tpmt Log2FC” value (liver protein, 30mg/kg) was -1.4. For the same compound, the “Tspo Log2FC” value (liver protein, 30mg/kg) was 1.9, the “Txnrd2 Log2FC” value (liver protein, 30mg/kg) was -0.6 and the “Ube2f Log2FC” value (liver protein, 30mg/kg) was 0.6. The “Ugt2b1 Log2FC” value (liver protein, 30mg/kg) was -1.1, the “Wdr45 Log2FC” value (liver protein, 30mg/kg) was -1.1 and the “Ythdc1 Log2FC” value (liver protein, 30mg/kg) was 0.5. For the same compound, the “mvd Log2FC” value (liver protein, 30mg/kg) was 0.9 and the “differentially expressed liver proteins vs vehicle control” value (middle dose (10 mg/kg BID), adjusted p < 0.05 and Log2 FC > 0.5 or < −0.5) was 467.
